The values below come from patent publication US9428540B2, “Fatty acid esters of glucocorticoids as anti-inflammatory and anti-cancer agents” (priority 2007, dated 2016).

The test system of assay [1] is LUC reporter gene under the control of the PPARα 5′-flanking and promoter region. Description: LUC reporter gene activity in transiently transfected COS-1 cells (pMT-hGR). It counts as cell-based, Monkey. On the set-up: gene activation less than fluticasone propionate / luciferase activity/β-galactosidase (in percent (%) of Fluticasone propionate): concentration or dose not given beside the values. As to conditions: for luciferase activity/β-galactosidase (in percent (%) of Fluticasone propionate): COS-1 cells, harvested after 72 h. As to the method:
Monkey kidney COS-1 cells (ATCC CRL 1650) were grown in Dulbecco's modified Eagle's medium (Gibco BRL, Grand Island, N.Y.) as described elsewhere (9). Transient transfections of COS-1 cells were performed as described elsewhere (10). The cells were plated at a density of 2×10^5 cells/well. Each well received 5 μg test plasmid, 5 μg β-galactosidase control plasmid as an internal control and either 2 μg expression plasmid, pMT-hGR or pGL3-basic as carrier. Plasmid details: The mouse PPARα gene is described elsewhere (11). Vectors expressing the LUC reporter gene under the control of the PPARα5′-flanking and promoter region were constructed in the pGL3-LUC vector (Promega). The PPARα 5′-flanking sequence between −2800 bp and +100 bp was cloned into NheI digested pGL3-LUC to generate the PPAR (−2800/+100) LUC plasmid Each transfection was performed in triplicates. The cells were transfected 24 h after plating together with fresh medium containing ligand. After 72 h cells were harvested, cytosol extracts were prepared and LUC activities were measured according to the Promega protocol. Results were normalized against β-galactosidase activities measured by incubating 100 μl extract with 0.28 mg o-nitrophenyl-D-galactoside (ONPG) in 50 mM phosphate buffer pH 7.0, 10 mM KCl, 1 mM MgCl2 for 30 min at 30° C. and reading absorbance at 420 nm.
On the technique in general: Reporter assays use an easily measured gene product as a stand-in for the process of interest.

The test system of assay [2] is THP-1 cells. Description: CellTiter 96 Non-Radioactive cell proliferation (MTS) assay, 48 h. The format is cell-based, human. As to conditions: for IC50: THP1 cells, 48 hours incubation, read-out: THP1 cells, IC50 μM ± SD. As for the experimental part:
(§1) The U937 and THP-1 cell lines were seeded, 20 000 cells per well, in 96-well-plates. 50 μl cell culture medium was added to each well. At the same time test compounds were added in 5 different concentrations and incubated for 48 hours. The CellTiter 96® Non-Radioactive cell proliferation assay (Promega) was used to study the cytotoxicity of test compounds in these cells. This assay is a colorimetric method for determining the number of viable cells in proliferation or chemosensitivity assays. It is composed of solutions of a novel tetrazolium compound (3-(4,5-dimethylthiazol-2-yl)-5-(3-carboxymethoxyphenyl)-2-(4-sulfophenyl)-2H-tetrazolium, inner salt; MTS) and an electron coupling reagent (phenazine methosulfate; PMS). MTS is bioreduced by cells into a formazan product that is soluble in tissue culture medium. The absorbance of the formazan at 490 nm can be measured directly from 96 well assay plates without additional processing. The quantity of formazan product as measured by the amount of 490 nm absorbance is directly proportional to the number of living cells in culture (IC50 values). The test compounds were fluticasone propionate and fluticasone elaidic acid derivative.

Assay [3] has as its system U937 cells. The description is as above. As to conditions: for IC50: read-out: U937 cells, IC50 μM ± SD. The format is cell-based, human. As to the method: as §1
The subject of assay [4] is GM-CSF release. As to the kind of experiment: Inhibition of IL-1β-stimulated GM-CSF release in A549 TRE cells. The format is cell-based. As to conditions: for IC50: IL-1β-stimulated, 24 hours exposure; for fold more potent inhibition of GM-CSF release compared to fluticasone propionate: versus fluticasone propionate. As to the method: IL-1β-stimulation causes an increase in granulocyte-macrophage colony-stimulating factor (GM-CSF) release after 24 hours in A549 TRE (AP-1 regulation) cells. Inhibition of the GM-CSF release is measured after 24 hours exposure to a test compound.

Assay [5] relates to GRE-luciferase. Description: Induction of GRE-luciferase activity in stably transfected A549 GRE-luciferase cells. The format is cell-based.
Where [6] appears, read: listed as fluticasone elaidic acid ester derivative.

Like-named read-outs stand apart in the source and are kept apart here. Bounds are passed on as bounds.

For the compound “6α,9α-Difluoro-16α-elaidoyloxy-11β-hydroxy-16α-methyl-3-oxoandrosta-1,4-diene-17β-carboxylic acid”, the “luciferase activity/β-galactosidase (in percent (%) of Fluticasone propionate)” value in assay [1] and in assay [1] (listed as flumethasone elaidic acid ester derivative) was 2% each time.

By IC50 is commonly meant the point on the concentration scale where inhibition reaches its midpoint. By EC50 is commonly meant the concentration needed to bring the measured effect to its halfway point. With `CCC(=O)O[C@]1(C(=O)SCF)[C@H](C)C[C@H]2[C@@H]3C[C@H](F)C4=CC(=O)C=C[C@]4(C)[C@@]3(F)[C@@H](O)C[C@@]21C` [Fluticasone propionate, reference compound], the 50% inhibitory concentration (IC50) in assay [2] (Homo sapiens, THP-1) is more than 100 µM; in assay [3] (Homo sapiens, U-937, 48 hours incubation) it was more than 100 µM; in assay [4] (Homo sapiens) it was 0.31 nM. For the same compound, the “activity in THP1 cells (resistance)” value in assay [2] (up to 100 μM) was “no activity seen up to 100 μM”. Further, the “activity in U937 cells (resistance)” value in assay [3] (up to 100 μM) was “no activity seen up to 100 μM”. Further, the “luciferase activity/β-galactosidase (in percent (%) of Fluticasone propionate)” value in assay [1] stood at 100%. The EC50 in assay [5] (Homo sapiens, read-out: EC50 of induction of GRE-luciferase reporter activity) turned out to be 0.51 nM.

On to `CCCCCCCCC=CCCCCCCCC(=O)OC1(C(=O)SCF)C(C)CC2C3CC(F)C4=CC(=O)C=CC4(C)C3(F)C(O)CC21C` (centres unmarked) [Fluticasone elaidic acid derivative], for which the IC50 in assay [2] was 10 µM; in assay [3] (48 hours incubation), 1 µM; in assay [4], 0.014 nM. Moreover, the “luciferase activity/β-galactosidase (in percent (%) of Fluticasone propionate)” value in assay [1] (listed as Fluticasone elaidic acid ester derivative) and in assay [1] (setting [6]) was 15% in each case. Besides, the “gene activation less than fluticasone propionate” value in assay [1] (activation as a measure for side effects) is reported as 85%. The “fold decrease in side effects (activation of GRE elements)” value in assay [1] (versus fluticasone propionate) came to 7 fold. In addition, the “fold more potent inhibition of GM-CSF release compared to fluticasone propionate” value is listed as 22 fold in assay [4], “more than 20 fold” in assay [4] (listed as flucticasone elaidic acid ester derivative) and 22 fold in assay [4] (setting [6]). Further, the “effect on GRE-luciferase activity” value in assay [5] was “lack of effect”.
